Experimental data as given in paper PMC10541190 (The Journal of Clinical Investigation, 2023).
Values joined by “and” are separate entries in the source; they are usually repeats but may differ in a detail not shown here. Equal values may be shown once. Read-outs that look alike come from different tables or passages of the source.

What was measured:
ErbB1 = settings: cited from earlier work
SARS-CoV-2 = assay type: cell-based
[1] = tested on: SARS-CoV-2 main protease (Mpro); settings: cited from earlier work
VEEV (TC-83) = experiment: microbe, parasite or virus in culture; assay type: cell-based; settings: Venezuelan equine encephalitis virus, U-87 MG, read-out: EC50, VEEV (TC-83) infection
in vitro [2] = settings: human, Huh7 cell viability (%)
rVSV-SARS-CoV-2-S = experiment: microbe, parasite or virus in culture; assay type: cell-based; settings: Severe acute respiratory syndrome coronavirus 2, Vero, read-out: EC50, rVSV-SARS-CoV-2-S infection
[3] = tested on: SARS-CoV-2 (USA-WA1/2020); experiment: microbe, parasite or virus in culture; assay type: cell-based; settings: Severe acute respiratory syndrome coronavirus 2, Vero
in vitro [4] = settings: human, Cell viability (%)
[5] = tested on: IL-2, IL-12p70, IL-13, IL-6, IFN-γ, IL-10; assay type: cell-based, human

In the case of `CS(=O)(=O)CCNCc1ccc(-c2ccc3ncnc(Nc4ccc(OCc5cccc(F)c5)c(Cl)c4)c3c2)o1` [Lapatinib], the “% of control, ErbB1” value (ErbB1) is listed as 5.3 nM 0%, the “suppression of viral infection” value (SARS-CoV-2) is listed as 98% and 75% and 99% and 84% and 57% and the “effect on SARS-CoV-2 main protease (Mpro)” value [1] is listed as “inhibits”. The EC50 (VEEV (TC-83)) was 1200 nM, the viability at 0.37 µM (in vitro [2]) was 103% and the viability at 3.333 µM (in vitro [2]) was 105%. For the same compound, the EC50 (rVSV-SARS-CoV-2-S) was 3200 nM, the EC50 ([3]; 24 h, read-out: SARS-CoV-2 EC50) was 500 nM and the EC50 ([3]; read-out: EC50, SARS-CoV-2 infection) was 500 nM. The viability at 20 µM (in vitro [4]) was 68.5%, the IFN-γ concentration [5] was 26.79 pg/mL and 38.39 pg/mL and the IL-1β concentration [5] was 11.89 pg/mL and 16.34 pg/mL. The IL-2 concentration [5] was 11.13 pg/mL and 12.03 pg/mL, the IL-4 concentration [5] was 7.10 pg/mL and 9.18 pg/mL and the IL-6 concentration [5] was 1072.19 pg/mL and 1729.84 pg/mL. The IL-8 concentration [5] was 2235.87 pg/mL and 2263.16 pg/mL, the IL-10 concentration [5] was 8.47 pg/mL and 10.43 pg/mL and the IL-12p70 concentration [5] was 18.48 pg/mL and 18.83 pg/mL. For the same compound, the IL-13 concentration [5] was 9.88 pg/mL and 8.83 pg/mL, the TNF-α concentration [5] was 22.84 pg/mL and 21.83 pg/mL and the “production of IL-2, IL-12p70, IL-13 and IL-6” value [5] was “reduced the production”.
